Data published in PubChem BioAssay AID1996.
In brackets after ≈: the same amount, converted by molar mass.

Settings: buffer; pH 7.4; 200.0 µM

Row | Compound | solubility kinetic [µg/mL]
1 | COC(=O)c1ccc(CO/N=C/c2ccccc2OC)cc1 | 2.6 (≈ 8.69 µM)
2 | CCCCCCCCCC(=O)N[C@H](CN1CCOCC1)[C@H](O)c1ccccc1.Cl | > 64.1
3 | CN1CCN(c2ccccc2/C=C2/C(=O)Nc3ccccc32)CC1 | > 47.9
4 | O=c1c2[nH]c3cccc(Cl)c3c2ncn1Cc1ccco1 | 0.5 (≈ 1.67 µM)
5 | CC(NC(=O)c1c(F)cccc1Cl)c1ccc(-n2ccnc2)cc1 (configuration not stated) | > 51.6
6 | COc1cccc(CN(C)C(=O)c2cc(S(=O)(=O)N3CCCC3)ccc2C)c1OC | > 64.9
7 | O=C(CSc1nnc(C2CC2)n1Cc1ccccc1)N1CCNC1=O | > 53.6
8 | COc1cccc(C2NC(=O)CCC2[N+](=O)[O-])c1 (configuration not stated) | > 37.5
9 | CC(C)n1c(CN(C)c2ccccc2)nc2ccccc21.Cl | 42.4

Results, then the compound that gave them:

Row | solubility kinetic [µg/mL] | Compound
10 | > 47.3 | Cc1ccc(C2=NN(CC(=O)NCCC(C)C)C(=O)CC2)cc1
11 | 36.8 (≈ 124 µM) | Cc1cc(C(=O)Nc2ccccc2Cl)c2ccccc2n1
12 | > 45.8 | CN(C(=O)Cn1cnc2sccc2c1=O)C1CCCCC1
13 | > 49.4 | CC(=O)NC1(C(F)(F)F)NC(=O)N(CCc2ccccc2)C1=O (configuration not stated)
14 | > 45.4 | CCNC(=S)N1CCCC(c2nc3ccc(C)cc3[nH]2)C1 (configuration not stated)
15 | 0.6 (≈ 2.21 µM) | Fc1ccc(-c2csc(Nc3ccccn3)n2)cc1
16 | > 35.1 | Nc1nnc(CC(=O)Nc2ccccc2)s1
17 | 33.1 (≈ 102 µM) | O=C(CCNC(=O)c1ccco1)NCCc1c[nH]c2ccccc12
